From patent US4740233A, “Substituted 1,2,4-triazolo[1,5-a]-pyrimidine-2-sulfonamides and compositions and methods of controlling undesired vegetation and suppressing the nitrification of ammonium nitrogen in soil” (The Dow Chemical Company, priority 1986, dated 1988)

Legend:
rape [1] = test: Postemergent control of plant species; type: in vivo, Brassica napus; settings: Brassica napus, post-emergence, 336 h, read-out: percent postemergent control
Procedure, shortened: (§1)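 Compounds in acetone mixed 1:1 with water containing 0.1% surfactant, sprayed postemergence on greenhouse plants at the 2-4 leaf stage. Growth reduction versus untreated plants of the same species scored after about two weeks.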

soybean [2] = test: Postemergent control of plant species; type: in vivo, Glycine max.; settings: Glycine max, post-emergence, 336 h, read-out: percent postemergent control
Procedure, shortened: as §1

sugar beet [3] = test: Postemergent control of plant species; type: in vivo, Beta saccharifera; settings: Beta vulgaris, post-emergence, 336 h, read-out: percent postemergent control
Procedure, shortened: as §1

cocklebur = test: Postemergent control of plant species; type: in vivo, Xanthium spp.; settings: Xanthium strumarium, post-emergence, 336 h, read-out: percent postemergent control
Procedure, shortened: as §1

jimsonweed [4] = test: Postemergent control of plant species; type: in vivo, Datura stramonium; settings: Datura stramonium, post-emergence, 336 h, read-out: percent postemergent control
Procedure, shortened: as §1

annual morning glory [5] = test: Postemergent control of plant species; type: in vivo, Ipomoea spp.; settings: Ipomoea, post-emergence, 336 h, read-out: percent postemergent control
Procedure, shortened: as §1

pigweed = test: Postemergent control of plant species; type: in vivo, Amaranthus spp.; settings: Amaranthus retroflexus, post-emergence, 336 h, read-out: percent postemergent control
Procedure, shortened: as §1

velvetleaf [6] = test: Postemergent control of plant species; type: in vivo, Abutilon theophrasti; settings: Abutilon theophrasti, post-emergence, 336 h, read-out: percent postemergent control
Procedure, shortened: as §1

corn [7] = test: Postemergent control of plant species; type: in vivo, Zea mays; settings: Zea mays, post-emergence, 336 h, read-out: percent postemergent control
Procedure, shortened: as §1

rice [8] = test: Postemergent control of plant species; type: in vivo, Oryza sativa; settings: Oryza sativa, post-emergence, 336 h, read-out: percent postemergent control
Procedure, shortened: as §1

sorghum [9] = test: Postemergent control of plant species; type: in vivo, Sorghum vulgare; settings: Sorghum, post-emergence, 336 h, read-out: percent postemergent control
Procedure, shortened: as §1

wheat [10] = test: Postemergent control of plant species; type: in vivo, Triticum aestivum; settings: Triticum aestivum, post-emergence, 336 h, read-out: percent postemergent control
Procedure, shortened: as §1

barnyardgrass [11] = test: Postemergent control of plant species; type: in vivo, Echinochloa crusgalli; settings: Echinochloa crus-galli, post-emergence, 336 h, read-out: percent postemergent control
Procedure, shortened: as §1

crabgrass = test: Postemergent control of plant species; type: in vivo, Digitaria spp.; settings: Digitaria sanguinalis, post-emergence, 336 h, read-out: percent postemergent control
Procedure, shortened: as §1

yellow foxtail [12] = test: Postemergent control of plant species; type: in vivo, Setaria lutescens; settings: Setaria, post-emergence, 336 h, read-out: percent postemergent control
Procedure, shortened: as §1

johnson grass [13] = test: Postemergent control of plant species; type: in vivo, Sorghum halepense; settings: Sorghum halepense, post-emergence, 336 h, read-out: percent postemergent control
Procedure, shortened: as §1

wild oats [14] = test: Postemergent control of plant species; type: in vivo, Avena fatua; settings: Avena fatua, post-emergence, 336 h, read-out: percent postemergent control
Procedure, shortened: as §1

yellow nutsedge [15] = test: Postemergent control of plant species; type: in vivo, Cyperus esculentus; settings: Cyperus, post-emergence, 336 h, read-out: percent postemergent control
Procedure, shortened: as §1

rice [16] = test: Control of aquatic plant species (paddy water); type: in vivo, Oryza sativa; settings: Oryza sativa, 216 h, nine days, read-out: Percent control; for pest or weed control at 1000 g/ha: 1.0 Kg/Ha
Experimental: (§2) In testing for such utility, the plant species to be tested were transplanted into 16 oz. containers into about 2 inches of soil when they were in the 1-2 inch stage and then flooded to a depth of about 1 inch. An acetone concentrate of the chemical to be tested was then injected into the paddy water, the volume injected being varied as desired to provide the desired concentration. Percent control was evaluated nine days after application.

barnyardgrass [17] = test: Control of aquatic plant species (paddy water); type: in vivo, Echinochloa crusgalli; settings: Echinochloa crus-galli, 216 h, nine days, read-out: Percent control; for pest or weed control at 1000 g/ha: 1.0 Kg/Ha
Experimental: as §2

sprangletop = test: Control of aquatic plant species (paddy water); type: in vivo, Leptochloa filiformis; settings: Leptochloa filiformis, 216 h, nine days, read-out: Percent control; for pest or weed control at 1000 g/ha: 1.0 Kg/Ha
Experimental: as §2

yellow nutsedge [18] = test: Control of aquatic plant species (paddy water); type: in vivo, Cyperus esculentus; settings: Cyperus, 216 h, nine days, read-out: Percent control; for pest or weed control at 1000 g/ha: 1.0 Kg/Ha
Experimental: as §2

[19] = test system: nitrification of ammonium nitrogen; test: Suppression of nitrification of ammonium nitrogen in soil; settings: 27° C.
Procedure, shortened: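 Soil (20 g) moistened to its 1/3 bar tension value, mixed with test chemical and incubated sealed for two weeks at 27° C. Nitrate extracted with ammonium sulfate solution and measured by nitrate-specific ion electrode; value given as % NH4-N remaining.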

cotton [20] = test: Postemergent control of plant species; type: in vivo, Gossypium spp.; settings: Gossypium hirsutum, post-emergence, 336 h, read-out: percent postemergent control
Procedure, shortened: as §1

cotton [21] = test: Preemergent control of plant species; type: in vivo, Gossypium spp.; settings: Gossypium hirsutum, pre-emergence, 336 h; 0.25 lb/acre; read-out: percent preemergent control
Procedure, shortened: (§3)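 Seeds sown in agricultural soil in greenhouse beds, then aqueous-emulsion compositions applied uniformly to the bed surface at listed rates. Beds kept two weeks under greenhouse growth conditions with watering. Control expressed as growth reduction versus water-treated beds of the same species.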

rape [22] = test: Preemergent control of plant species; type: in vivo, Brassica napus; settings: Brassica napus, pre-emergence, 336 h; 0.25 lb/acre; read-out: percent preemergent control
Procedure, shortened: as §3

soybean [23] = test: Preemergent control of plant species; type: in vivo, Glycine max.; settings: Glycine max, pre-emergence, 336 h; 0.25 lb/acre; read-out: percent preemergent control
Procedure, shortened: as §3

sugar beet [24] = test: Preemergent control of plant species; type: in vivo, Beta saccharifera; settings: Beta vulgaris, pre-emergence, 336 h; 0.25 lb/acre; read-out: percent preemergent control
Procedure, shortened: as §3

jimsonweed [25] = test: Preemergent control of plant species; type: in vivo, Datura stramonium; settings: Datura stramonium, pre-emergence, 336 h; 0.25 lb/acre; read-out: percent preemergent control
Procedure, shortened: as §3

annual morning glory [26] = test: Preemergent control of plant species; type: in vivo, Ipomoea spp.; settings: Ipomoea, pre-emergence, 336 h; 0.25 lb/acre; read-out: percent preemergent control
Procedure, shortened: as §3

velvetleaf [27] = test: Preemergent control of plant species; type: in vivo, Abutilon theophrasti; settings: Abutilon theophrasti, pre-emergence, 336 h; 0.25 lb/acre; read-out: percent preemergent control
Procedure, shortened: as §3

corn [28] = test: Preemergent control of plant species; type: in vivo, Zea mays; settings: Zea mays, pre-emergence, 336 h; 0.25 lb/acre; read-out: percent preemergent control
Procedure, shortened: as §3

rice [29] = test: Preemergent control of plant species; type: in vivo, Oryza sativa; settings: Oryza sativa, pre-emergence, 336 h; 0.25 lb/acre; read-out: percent preemergent control
Procedure, shortened: as §3

sorghum [30] = test: Preemergent control of plant species; type: in vivo, Sorghum vulgare; settings: Sorghum, pre-emergence, 336 h; 0.25 lb/acre; read-out: percent preemergent control
Procedure, shortened: as §3

wheat [31] = test: Preemergent control of plant species; type: in vivo, Triticum aestivum; settings: Triticum aestivum, pre-emergence, 336 h; 0.25 lb/acre; read-out: percent preemergent control
Procedure, shortened: as §3

barnyardgrass [32] = test: Preemergent control of plant species; type: in vivo, Echinochloa crusgalli; settings: Echinochloa crus-galli, pre-emergence, 336 h; 0.25 lb/acre; read-out: percent preemergent control
Procedure, shortened: as §3

johnson grass [33] = test: Preemergent control of plant species; type: in vivo, Sorghum halepense; settings: Sorghum halepense, pre-emergence, 336 h; 0.25 lb/acre; read-out: percent preemergent control
Procedure, shortened: as §3

wild oats [34] = test: Preemergent control of plant species; type: in vivo; settings: Avena fatua, pre-emergence, 336 h; 0.25 lb/acre; read-out: percent preemergent control
Procedure, shortened: as §3

yellow foxtail [35] = test: Preemergent control of plant species; type: in vivo, Setaria lutescens; settings: Setaria, pre-emergence, 336 h; 0.25 lb/acre; read-out: percent preemergent control
Procedure, shortened: as §3

yellow nutsedge [36] = test: Preemergent control of plant species; type: in vivo, Cyperus esculentus; settings: Cyperus, pre-emergence, 336 h; 0.25 lb/acre; read-out: percent preemergent control
Procedure, shortened: as §3

SMILES	plant injury at 500 ppm (rape [1]) [%]	plant injury at 500 ppm (soybean [2]) [%]	plant injury at 500 ppm (sugar beet [3]) [%]	pest or weed control at 500 ppm (cocklebur) [%]	pest or weed control at 500 ppm (jimsonweed [4]) [%]	pest or weed control at 500 ppm (annual morning glory [5]) [%]	pest or weed control at 500 ppm (pigweed) [%]	pest or weed control at 500 ppm (velvetleaf [6]) [%]	plant injury at 500 ppm (corn [7]) [%]	plant injury at 500 ppm (rice [8]) [%]	plant injury at 500 ppm (sorghum [9]) [%]	plant injury at 500 ppm (wheat [10]) [%]	pest or weed control at 500 ppm (barnyardgrass [11]) [%]	pest or weed control at 500 ppm (crabgrass) [%]	pest or weed control at 500 ppm (yellow foxtail [12]) [%]	pest or weed control at 500 ppm (johnson grass [13]) [%]	pest or weed control at 500 ppm (wild oats [14]) [%]	pest or weed control at 500 ppm (yellow nutsedge [15]) [%]	pest or weed control at 1000 g/ha (rice [16]) [%]	pest or weed control at 1000 g/ha (barnyardgrass [17]) [%]	further results
Cc1cc(C)n2nc(S(=O)(=O)Nc3ccccc3Cl)nc2n1 [Compound 7, 5,7-dimethyl-N-(2-chlorophenyl)-1,2,4-triazolo[1,5-a]pyrimidine-2-sulfonamide]	90	55	100	100	20	90	60	65	0	15	65	0	35	0	25	50	0	65	97	99	pest or weed control at 1000 g/ha (sprangletop): 93%; pest or weed control at 1000 g/ha (yellow nutsedge [18]): 90%; % NH4-N Remaining After 2 Weeks Incubation ([19]; 0.06 ppm): 17%; % NH4-N Remaining After 2 Weeks Incubation ([19]; 0.125 ppm): 30%; % NH4-N Remaining After 2 Weeks Incubation ([19]; 0.25 ppm): 62%; % NH4-N Remaining After 2 Weeks Incubation ([19]; 0.5 ppm): 73%; % NH4-N Remaining After 2 Weeks Incubation ([19]; 1 ppm): 80%
COC(=O)c1ccccc1NS(=O)(=O)c1nc2nc(C)cc(C)n2n1 [Compound 10, methyl N-(5,7-dimethyl-1,2,4-triazolo[1,5-a]pyrimidine-2-sulfonyl)anthranilate]	10	20	60	15	0	0	20	0	0	–	0	0	0	0	0	0	0	0	93	90	plant injury at 500 ppm (cotton [20]): 0%; pest or weed control at 1000 g/ha (sprangletop): 50%; pest or weed control at 1000 g/ha (yellow nutsedge [18]): 90%; % NH4-N Remaining After 2 Weeks Incubation ([19]; 0.01 ppm): 0%; % NH4-N Remaining After 2 Weeks Incubation ([19]; 0.1 ppm): 0%; % NH4-N Remaining After 2 Weeks Incubation ([19]; 1 ppm): 27%; % NH4-N Remaining After 2 Weeks Incubation ([19]; 10 ppm): 70%
Cc1ccnc2nc(S(=O)(=O)Nc3c(Cl)cccc3Cl)nn12 [Compound 180]	100	100	100	100	100	90	–	100	0	10	50	0	10	90	75	20	0	90	80	97	plant injury at 500 ppm (cotton [20]): 100%; pest or weed control at 250 g/ha (rice [16]; 0.25 Kg/Ha): 0%; pest or weed control at 250 g/ha (barnyardgrass [17]; 0.25 Kg/Ha): 90%; pest or weed control at 250 g/ha (sprangletop; 0.25 Kg/Ha): 0%; pest or weed control at 1000 g/ha (sprangletop): 97%; pest or weed control at 250 g/ha (yellow nutsedge [18]; 0.25 Kg/Ha): 90%; pest or weed control at 1000 g/ha (yellow nutsedge [18]): 97%
Cc1ccn2nc(S(=O)(=O)Nc3c(C)nn(C)c3C(F)(F)F)nc2n1 [Compound 246]	70	85	100	90	80	50	100	70	0	70	95	0	50	75	90	75	0	80	–	–	plant injury at 500 ppm (cotton [20]): 80%; plant injury at 280.212 g/ha (cotton [21]): 80%; plant injury at 280.212 g/ha (rape [22]): 80%; plant injury at 280.212 g/ha (soybean [23]): 90%; plant injury at 280.212 g/ha (sugar beet [24]): 90%; pest or weed control at 280.212 g/ha (jimsonweed [25]): 0%; pest or weed control at 280.212 g/ha (annual morning glory [26]): 0%; pest or weed control at 280.212 g/ha (velvetleaf [27]): 30%; plant injury at 280.212 g/ha (corn [28]): 20%; plant injury at 280.212 g/ha (rice [29]): 20%; plant injury at 280.212 g/ha (sorghum [30]): 95%; plant injury at 280.212 g/ha (wheat [31]): 10%; pest or weed control at 280.212 g/ha (barnyardgrass [32]): 0%; pest or weed control at 280.212 g/ha (johnson grass [33]): 20%; pest or weed control at 280.212 g/ha (wild oats [34]): 40%; pest or weed control at 280.212 g/ha (yellow foxtail [35]): 20%; pest or weed control at 280.212 g/ha (yellow nutsedge [36]): 20%
